In patent US7238701B2, “Substituted tetrahydrobenzothienopyrimidinamine compounds useful for treating hyper-proliferative disorders” (Bayer Pharmaceuticals Corporation, priority 2003, dated 2007):

Legend:
[1] = test system: A431cells (human epidermoid carcinoma); assay: In vitro tumor cell proliferation assay (Cell Titer-Glo luminescent cell viability), A431 cells; type: cell-based; settings: A-431, 72 h, 72 hours drug exposure, 10% Fetal Bovine Serum, ATP luminescence readout, read-out: IC50 (50% inhibition of cell proliferation)
In short: (§1)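 ATP luminescence (CellTiter-Glo) measured proliferation after 72 h compound exposure at 37 °C, giving IC50 values. Serial dilutions spanning 64 pM–100 μM in 0.1% DMSO were applied one day after plating 2.5×10^3 cells/well in RPMI plus 10% fetal bovine serum.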

[2] = test system: BT474 (human breast carcinoma); assay: In vitro tumor cell proliferation assay (Cell Titer-Glo luminescent cell viability), BT474 cells; type: cell-based; settings: BT-474, 72 hours drug exposure, 10% Fetal Bovine Serum, ATP luminescence readout, read-out: IC50 (50% inhibition of cell proliferation)
In short: as §1

| Structure (SMILES) | IC50 [1] [µM] | IC50 [2] [µM] |
| --- | --- | --- |
| CCOC(=O)C1CCc2c(sc3ncnc(Nc4ccc(OCc5ccccc5)cc4)c23)C1 (stereo not shown) [Example 32, Ethyl 4-{[4-(benzyloxy)phenyl]amino}-5,6,7,8-tetrahydro[1]benzothieno[2,3-d]pyrimidine-7-carboxylate] | < 50 | < 50 |
| Cc1ccc(Oc2ccc(Nc3ncnc4sc5c(c34)CCC(CCN3CCC(N(C)C)C3)C5)cc2C)cn1 (stereo not shown) [Example 223, 7-{2-[3-(dimethylamino)pyrrolidin-1-yl]ethyl}-N-{3-methyl-4-[(6-methylpyridin-3-yl)oxy]phenyl}-5,6,7,8-tetrahydro[1]benzothieno[2,3-d]pyrimidin-4-amine] | < 5 | < 5 |

More lines, now with the values ahead:

| IC50 [1] [µM] | IC50 [2] [µM] | Structure (SMILES) |
| --- | --- | --- |
| < 5 | < 5 | CCN(CC)CCC1CCc2c(sc3ncnc(Nc4ccc(OCc5ccccn5)c(Cl)c4)c23)C1 (stereo not shown) [Example 194, N-[3-chloro-4-(pyridin-2-ylmethoxy)phenyl]-7-[2-(diethylamino)ethyl]-5,6,7,8-tetrahydro[1]benzothieno[2,3-d]pyrimidin-4-amine] |
| < 5 | < 5 | COCCNCCC1CCc2c(sc3ncnc(Nc4ccc(F)c(Cl)c4)c23)C1 (stereo not shown) [Example 75, N-(3-chloro-4-fluorophenyl)-7-{2-[(2-methoxyethyl)amino]ethyl}-5,6,7,8-tetrahydro[1]benzothieno[2,3-d]pyrimidin-4-amine] |
| < 5 | < 50 | O=C(CC1CCc2c(sc3ncnc(Nc4cccc(Br)c4)c23)C1)N1CCOCC1 (stereo not shown) [Example 70] |
